Target: T1, Human recombinant MMP-13 (Homo sapiens, UniProt P45452)
T1 construct: made in house; host or cells: baculovirus / insect cells
Test: In vitro MMP inhibition analysis (fluorogenic peptide substrate cleavage), Ki
Assay type: biochemical
Procedure: Several compounds and salts were analyzed in an in vitro assay to determine their ability to inhibit the MMP cleavage of peptide substrates. Inhibition constant (Ki) were calculated from the assayed compound-MMP interactions.
Human recombinant MMP-1, MMP-2, MMP-9, MMP-13, and MMP-14 were used in this assay. All enzymes were prepared in Assignee's laboratories following usual laboratory procedures. Protocols for the preparation and use of these enzymes are available in the scientific literature. See, e.g., Enzyme Nomenclature (Academic Press, San Diego, Calif., 1992) (and the citations therein). See also, Frije et al., J. Biol. Chem., 26(24), 16766-73 (1994).
The MMP-13 was obtained as a proenzyme from a full-length cDNA clone using baculovirus, as described by V. A. Luckow, “Insect Cell Expression Technology,” Protein Engineering: Principles and Practice, pp. 183-218 (edited by J. L. Cleland et al., Wiley-Liss, Inc., 1996). The expressed proenzyme was first purified over a heparin agarose column, and then over a chelating zinc chloride column. The proenzyme was then activated by APMA for use in the assay. Further details on baculovirus expression systems may be found in, for example, Luckow et al., J. Virol., 67, 4566-79 (1993). See also, O'Reilly et al, Baculovirus Expression Vectors: A Laboratory Manual (W.H. Freeman and Co., New York, N.Y., 1992). See also, King et al., The Baculovirus Expression System: A Laboratory Guide (Chapman & Hall, London, England, 1992).
All MMPs were activated using 4-aminophenylmercuric acetate (“APMA”, Sigma Chemical, St. Louis, Mo.) or trypsin. MMP-9 also was activated using human recombinant MMP-3 (purified in Assignee's laboratory following standard cloning and purification techniques).
The following fluorogenic, methoxycoumarin-containing polypeptide substrate (I) was used in the MMP inhibition assays: MCA-ArgProLeuGlyLeuDpaAlaArgGluArgNH2 (I) “MCA” is 7-methoxycoumarin-4-yl acetyl. Substrate (I) was prepared Assignee's laboratory. In the absence of MMP inhibitory activity, the substrate is cleaved at the Gly-Leu peptide bond. This cleavage separates the highly fluorogenic peptide from the 2,4-dinitrophenyl quencher, thus resulting in increase of fluorescent intensity.
The stock solutions of the assayed compounds and salts were prepared in […] (DMSO). These stock solutions were diluted in Buffer A (100 mM Tris-HCl, 100 mM NaCl, 10 mM CaCl2, 0.05% polyoxyethylene 23 lauryl ether, pH 7.5) to obtain solutions with different compound concentrations, i.e., assay solutions with different concentrations of the assayed […] compound. The experiment controls contained the same amount of Buffer A/DMSO as the assayed sample, but contained none of the tested compound or salt.
The assays from which the Ki determinations were made were performed as follows. The assayed compound samples were incubated in separate wells of untreated white polystyrene plates (Nunc Nalgene International, Rochester, N.Y.), and analyzed on a Tecan SpectraFlour Plus plate reader. The excitation wavelength was 330 nm, and the emission wavelength—420 nm. All samples (assayed compounds and controls) were incubated in separate plate wells at room temperature for 1 hr in the presence of 4 μM of MMP substrate (I). In the absence of MMP inhibitory activity, substrate (I) was cleaved at the Gly-Leu bond resulting in an increase of relative fluorescence. Inhibition was observed as a reduced rate of this increase in relative fluorescence. […] This protocol is a modification of method by Knight et al., FEBS Lett., 296(3), 263-266 (1992). Apparent inhibitory constants were determined by non-linear regression of reaction velocity as a function of inhibitor and enzyme concentration using Morrison's equation, as described by Kuzmic, Anal. Biochem. 286, 45-50 (2000). […]

Structure (SMILES)	Ki (Table 1)	Ki (Table 2)
O=C(NO)C1(S(=O)(=O)c2ccc(-c3ccc(CCCC(F)(F)F)cn3)cc2)CCN(C2CC2)CC1 [Example 51]	0.05 nM	–
CCN1CCC(C(=O)NO)(S(=O)(=O)c2ccc(-c3ccc(CCCC(F)(F)F)cn3)cc2)CC1 [Example 53]	0.06 nM	–
O=C(NO)C1(S(=O)(=O)c2ccc(-c3cnc(N4CCCCC4)cn3)cc2)CCOCC1 [Example 131]	–	2.04 nM
O=C(NO)C1(S(=O)(=O)c2ccc(-c3ccc(CCCC(F)(F)F)cc3)cc2)CCOCC1 [Example 42]	0.072 nM	–
O=C(NO)C1(S(=O)(=O)c2ccc(-c3ccc(CCCC(F)F)cc3)cc2)CCOCC1 [Example 57]	0.04 nM	–
O=C(NO)C1(S(=O)(=O)c2ccc(-c3ccc(CCCC(F)(F)F)cn3)cc2)CCOCC1 [Example 69]	0.082 nM	–
O=C(NO)C1(S(=O)(=O)c2ccc(-c3cscc3-c3ccc(F)cc3)cc2)CCOCC1 [Example 132]	–	71 nM
O=C(NO)C1(S(=O)(=O)c2ccc(-c3cnc(CCC(F)(F)C(F)(F)F)nc3)cc2)CCOCC1 [Example 142]	–	22.5 nM
O=C(NO)C1(S(=O)(=O)c2ccc(-c3cnc(CCCC(F)(F)F)cn3)cc2)CCOCC1 [Example 58]	0.45 nM	–
COCCN1CCC(C(=O)NO)(S(=O)(=O)c2ccc(-c3ccc(CCCC(F)(F)F)cn3)cc2)CC1 [Example 54]	0.3 nM	–

Continued, values first:

Ki (Table 1)	Ki (Table 2)	Structure (SMILES)
–	1.76 nM	O=C(NO)C1(S(=O)(=O)c2ccc(-c3noc(-c4ccc(F)cc4)n3)cc2)CCOCC1 [Example 134]
–	1.56 nM	CCc1cnc(-c2ccc(S(=O)(=O)C3(C(=O)NO)CCOCC3)cc2)nc1 [Example 122]
–	0.17 nM	O=C(NO)C1(S(=O)(=O)c2ccc(-c3ncc(CCC(F)(F)C(F)(F)F)cn3)cc2)CCOCC1 [Example 137]
–	0.26 nM	O=C(NO)C1(S(=O)(=O)c2ccc(-c3ccc(-c4ccc(OC(F)(F)F)cc4)cn3)cc2)CCN(C2CC2)CC1 [Example 145]
–	0.09 nM	COCC#Cc1cnc(-c2ccc(S(=O)(=O)C3(C(=O)NO)CCOCC3)cc2)cn1 [Example 164]
–	0.102 nM	O=C(NO)C1(S(=O)(=O)c2ccc(-c3ccc(OCCCC(F)(F)F)cc3)cc2)CCOCC1 [Example 74]
–	0.07 nM	O=C(NO)C1(S(=O)(=O)c2ccc(-c3ccc(CCC(F)(F)F)cc3)cc2)CCOCC1 [Example 161]
–	0.082 nM	CCCCOc1ccc(-c2ccc(S(=O)(=O)C3(C(=O)NO)CCN(C4CC4)CC3)cc2)cc1 [Example 120]
–	0.15 nM	O=C(NO)C1(S(=O)(=O)c2ccc(-c3ccc(-c4ccccc4)cc3)cc2)CCN(C2CC2)CC1 [Example 153]
–	0.17 nM	CCN1CCC(C(=O)NO)(S(=O)(=O)c2ccc(-c3ccc(-c4csc(C)n4)cc3)cc2)CC1 [Example 155]
–	0.26 nM	COCCN1CCC(C(=O)NO)(S(=O)(=O)c2ccc(-c3cnc(OCC(F)(F)C(F)(F)F)cn3)cc2)CC1 [Example 157]
–	0.028 nM	CCCCOc1cnc(-c2ccc(S(=O)(=O)C3(C(=O)NO)CCOCC3)cc2)cn1 [Example 73]
–	0.012 nM	CCN1CCC(C(=O)NO)(S(=O)(=O)c2ccc(-c3ccc(OCCCCO)cc3)cc2)CC1 [Example 118]
–	0.012 nM	O=C(NO)C1(S(=O)(=O)c2ccc(-c3ccc(-c4ccncc4)cc3)cc2)CCOCC1 [Example 141]

From patent US20060074243A1, “Hydroxamic acid and amide compounds and their use as protease inhibitors” (Pharmacia Corporation, priority 2002, published 2006)
